The source of these data is patent US11753407B2, “Compounds for treating spinal muscular atrophy” (PTC Therapeutics, Inc., priority 2012, dated 2023).

SMILES strings stand for the structures. Some results are limits rather than exact numbers.

Data set [1] has as its system Smn protein in SMA patient fibroblast cells (GM03813). Put plainly: Smn protein assay in cultured cells (SMN HTRF). Conditions: SMA patient fibroblast cells, 48 hours; for EC1.5x for Smn protein expression: 7-point concentration curve, SMN HTRF, concentration producing 1.5 times Smn protein vs DMSO vehicle control; for maximum fold (Fold) increase of Smn protein: 7-point concentration data, fold relative to vehicle control. It is filed as cell-based, human. Put shortly: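 SMA patient fibroblasts (5,000/well, DMEM-10% FBS) treated 48 h at 37° C with 7-point, 3.16-fold compound series in triplicate; lysates read by SMN HTRF (665/620 nm ratio). Fold Smn increase over DMSO vehicle derived; EC1.5× is concentration giving 1.5-fold Smn, with maximum fold also reported.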
(In general: Time-resolved FRET reads energy transfer from a long-lived donor to a nearby acceptor.)

Data set [2] concerns SMN2 minigene mRNA (SMN2-A minigene) in HEK293H cells. Description: SMN2 minigene mRNA splicing RT-qPCR assay in cultured cells. The class given is cell-based, human. Conditions: Homo sapiens, HEK293-H; concentration increasing full length SMN2 mRNA 1.5-fold relative to vehicle-treated cells; HEK293H cells with SMN2-A minigene, 24 hours, 7-point concentration data; read-out: EC1.5x for production of full length SMN2 mRNA. An outline of the steps: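 HEK293H cells stably carrying SMN2-A minigene treated with compounds (7-point, 3.16-fold dilutions, duplicates) for 24 h at 37 °C. Full-length exon 7-containing minigene mRNA measured by multiplex RT-qPCR with GAPDH, normalized and expressed relative to vehicle (modified ΔΔCt); EC1.5× is concentration giving 1.5-fold increase.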
For orientation: Quantitative PCR measures a nucleic acid by following its amplification.

The melting point is the temperature, or range, at which the solid turns liquid. Compound `Cc1cn2cc(-c3cc(=O)n4cc(N5CCN6CCC[C@H]6C5)ccc4n3)cc(Cl)c2n1` [Compound 293, 2-(8-chloro-2-methylimidazo[1,2-a]pyridin-6-yl)-7-[(8aS)-hexahydropyrrolo[1,2-a]pyrazin-2(1H)-yl]-4H-pyrido[1,2-a]pyrimidin-4-one] came in with a melting point of 269 to 275 °C. In data set [1], the “EC1.5x for Smn protein expression” value is given as “**** (an EC1.5x≤0.3 μM is indicated by four stars (****))” and the “maximum fold (Fold) increase of Smn protein” value (shortened to “maximum fold (Fold) increase”) was “***** (a fold increase >1.65 is indicated by five stars (*****))”. Besides, the EC (1.5-fold increase) in data set [2] is < 0.1 µM.
`CN(C)C1CCN(c2ccc3nc(-c4ccc5c(cnn5C)c4)cc(=O)n3c2)CC1` [Compound 491, 7-[4-(dimethylamino)piperidin-1-yl]-2-(1-methyl-1H-indazol-5-yl)-4H-pyrido[1,2-a]pyrimidin-4-one] displayed a melting point of 209 to 212 °C. In addition, in data set [1], the “EC1.5x for Smn protein expression” value was “** (an EC1.5× between >1 μM and ≤3 μM is indicated by two stars (**))”; the “maximum fold (Fold) increase” value was “**** (a fold increase between >1.5 and ≤1.65 is indicated by four stars (****))”. In addition, the EC (1.5-fold increase) in data set [2] lay within 0.3 to 1 µM.
In turn, `Cc1cn2cc(-c3cc(=O)n4cc(N5CCN[C@H](C)C5)ccc4n3)cc(C3CC3)c2n1` [Compound 715, 2-(8-cyclopropyl-2-methylimidazo[1,2-a]pyridin-6-yl)-7-[(3R)-3-methylpiperazin-1-yl]-4H-pyrido[1,2-a]pyrimidin-4-one] had a melting point of 246 to 250 °C. Besides, in data set [1], the “EC1.5x for Smn protein expression” value was “**** (an EC1.5x≤0.3 μM is indicated by four stars (****))” and the “maximum fold (Fold) increase” value is reported as “***** (a fold increase >1.65 is indicated by five stars (*****))”. Besides, in data set [2], the EC (1.5-fold increase) is < 0.1 µM.
For `Cc1cn2nc(-c3cc(=O)n4cc(N5CCN(C)[C@H](C)C5)cc(C)c4n3)cc2c(C)n1` [Compound 510, 7-[(3R)-3,4-dimethylpiperazin-1-yl]-2-(4,6-dimethylpyrazolo[1,5-a]pyrazin-2-yl)-9-methyl-4H-pyrido[1,2-a]pyrimidin-4-one] the same measures were 244 to 253 °C, “**** (an EC1.5x≤0.3 μM is indicated by four stars (****))”, “***** (a fold increase >1.65 is indicated by five stars (*****))” and < 0.1 µM.
On the same counts, the results for `Cc1cc(-c2cc(=O)n3cc(N4CCN[C@@H](C)C4)ccc3n2)cc2cn(C)nc12` [Compound 750, 2-(2,7-dimethyl-2H-indazol-5-yl)-7-[(3S)-3-methylpiperazin-1-yl]-4H-pyrido[1,2-a]pyrimidin-4-one] are 308 to 310 °C, “**** (an EC1.5x≤0.3 μM is indicated by four stars (****))”, “***** (a fold increase >1.65 is indicated by five stars (*****))” and < 0.1 µM.
Take `CCN1CCN(c2ccc3nc(-c4cc5cc(C)nc(C)c5o4)cc(=O)n3c2)CC1` [Compound 601, 2-(5,7-dimethylfuro[2,3-c]pyridin-2-yl)-7-(4-ethylpiperazin-1-yl)-4H-pyrido[1,2-a]pyrimidin-4-one]: the melting point is 202 to 204 °C. Moreover, in data set [1], the “EC1.5x for Smn protein expression” value is “*** (an EC1.5× between >0.3 μM and ≤1 μM is indicated by three stars (***))”; the “maximum fold (Fold) increase” value is “**** (a fold increase between >1.5 and ≤1.65 is indicated by four stars (****))”. Also, in data set [2], the EC (1.5-fold increase) was < 0.1 µM.
With `Cc1cn2cc(-c3cc(=O)n4cc(C5=CCNCC5)ccc4n3)cc2c(C)n1` [Compound 743, 2-(1,3-dimethylpyrrolo[1,2-a]pyrazin-7-yl)-7-(1,2,3,6-tetrahydropyridin-4-yl)-4H-pyrido[1,2-a]pyrimidin-4-one], the melting point is 189 to 191 °C. In addition, in data set [1], the “EC1.5x for Smn protein expression” value was “**** (an EC1.5x≤0.3 μM is indicated by four stars (****))” and the “maximum fold (Fold) increase” value is reported as “***** (a fold increase >1.65 is indicated by five stars (*****))”. Also, the EC (1.5-fold increase) in data set [2] was < 0.1 µM.
Consider `Cc1cn2cc(-c3cc(=O)n4cc(N5CCN[C@H](C)C5)ccc4n3)cc(Cl)c2n1` [Compound 290, 2-(8-chloro-2-methylimidazo[1,2-a]pyridin-6-yl)-7-[(3R)-3-methylpiperazin-1-yl]-4H-pyrido[1,2-a]pyrimidin-4-one], for which the melting point lay in the range of 236 to 239 °C. Also, in data set [1], the “EC1.5x for Smn protein expression” value is “**** (an EC1.5x≤0.3 μM is indicated by four stars (****))” and the “maximum fold (Fold) increase” value is reported as “***** (a fold increase >1.65 is indicated by five stars (*****))”. Moreover, the EC (1.5-fold increase) in data set [2] was < 0.1 µM.
In the case of `COc1ccc(-c2cc(=O)n3cc(N4CC[C@@H](N(C)C)C4)ccc3n2)cc1F` [Compound 282, 7-[(3R)-3-(dimethylamino)pyrrolidin-1-yl]-2-(3-fluoro-4-methoxyphenyl)-4H-pyrido[1,2-a]pyrimidin-4-one], the melting point was in the range of 188 to 191 °C. The “maximum fold (Fold) increase” value in data set [1] was “** (a fold increase between >1.2 and ≤1.35 is indicated by two stars (**))”. In addition, the EC (1.5-fold increase) in data set [2] lay in the range of 0.3 to 1 µM.
`CCc1nc(C)cn2nc(-c3cc(=O)n4cc(N5CCN(C6CCC6)[C@H](C)C5)ccc4n3)cc12` [Compound 645, 7-[(3R)-4-cyclobutyl-3-methylpiperazin-1-yl]-2-(4-ethyl-6-methylpyrazolo[1,5-a]pyrazin-2-yl)-4H-pyrido[1,2-a]pyrimidin-4-one]: the melting point lay within 261 to 264 °C. Also, in data set [1], the “EC1.5x for Smn protein expression” value was “**** (an EC1.5x≤0.3 μM is indicated by four stars (****))” and the “maximum fold (Fold) increase” value was “***** (a fold increase >1.65 is indicated by five stars (*****))”. The EC (1.5-fold increase) in data set [2] is < 0.1 µM.
Regarding `COc1ccc(-c2cc(=O)n3cc(N4CCNCC4)ccc3n2)cc1F` [Cpd 72, 2-(3-fluoro-4-methoxyphenyl)-7-(piperazin-1-yl)-4H-pyrido[1,2-a]pyrimidin-4-one], the melting point fell in the range of 191 to 195 °C. In addition, in data set [1], the “EC1.5x for Smn protein expression” value is “*** (an EC1.5× between >0.3 μM and ≤1 μM is indicated by three stars (***))”; the “maximum fold (Fold) increase” value was “*** (a fold increase between >1.35 and ≤1.5 is indicated by three stars (***))”. The EC (1.5-fold increase) in data set [2] is < 0.1 µM.
Consider `Cc1cn2nc(-c3cc(=O)n4cc(N5CCC(NCCO)CC5)cc(C)c4n3)cc2c(C)n1` [Compound 609, 2-(4,6-dimethylpyrazolo[1,5-a]pyrazin-2-yl)-7-{4-[(2-hydroxyethyl)amino]piperidin-1-yl}-9-methyl-4H-pyrido[1,2-a]pyrimidin-4-one], for which the melting point was 221 to 232 °C. Further, in data set [1], the “EC1.5x for Smn protein expression” value is recorded as “**** (an EC1.5x≤0.3 μM is indicated by four stars (****))” and the “maximum fold (Fold) increase” value was “***** (a fold increase >1.65 is indicated by five stars (*****))”. Besides, the EC (1.5-fold increase) in data set [2] is < 0.1 µM.
On to `CCN1CCN(c2ccc3cc(-c4ccc5nc(C)oc5c4)cc(=O)n3c2)C[C@@H]1C` [Compound 324, 7-[(3S)-4-ethyl-3-methylpiperazin-1-yl]-2-(2-methyl-1,3-benzoxazol-6-yl)-4H-quinolizin-4-one], for which the melting point was 288 to 290 °C. For the same compound, in data set [1], the “maximum fold (Fold) increase” value was “*** (a fold increase between >1.35 and ≤1.5 is indicated by three stars (***))”. The EC (1.5-fold increase) in data set [2] fell in the range of 0.3 to 1 µM.
